Data on 1 substance can be found in patent publication US20110224276A1, “OPTICAL ISOMER OF PHENYLPROPIONIC ACID AND ITS MEDICINAL USE” (priority 2008, published 2011).

For data set [1], the target named is T1, Cox-1 (Ovis aries, UniProt P05979).
T1 construct: purchased Cayman, USA
T1 sequence (P05979 25-600): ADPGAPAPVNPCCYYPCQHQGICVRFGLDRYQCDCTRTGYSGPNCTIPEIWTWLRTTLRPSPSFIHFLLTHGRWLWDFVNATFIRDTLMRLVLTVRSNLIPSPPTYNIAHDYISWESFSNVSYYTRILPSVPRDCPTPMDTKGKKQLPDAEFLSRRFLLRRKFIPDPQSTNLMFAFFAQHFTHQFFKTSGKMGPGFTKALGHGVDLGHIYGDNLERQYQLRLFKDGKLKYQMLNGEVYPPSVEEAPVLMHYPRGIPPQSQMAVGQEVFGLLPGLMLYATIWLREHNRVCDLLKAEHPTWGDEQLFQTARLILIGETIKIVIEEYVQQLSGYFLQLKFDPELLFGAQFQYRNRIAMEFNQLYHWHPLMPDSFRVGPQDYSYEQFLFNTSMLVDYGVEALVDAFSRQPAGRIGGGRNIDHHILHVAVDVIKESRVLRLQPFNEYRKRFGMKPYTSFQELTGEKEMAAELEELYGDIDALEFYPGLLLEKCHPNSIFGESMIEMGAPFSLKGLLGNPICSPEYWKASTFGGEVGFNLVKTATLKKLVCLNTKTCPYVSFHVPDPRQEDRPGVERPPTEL
Put plainly: inhibiting activity to COX-1 (TMPD colorimetric, 590 nm). It is filed as biochemical. The note with it: tested at 300, 100, 30, 10 μmol/L (positive control 100, 30, 10, 3). Here is the method:
(§1) 2.5.1 The Inhibiting Activity to COX-1/COX-2
(§2) (1) In 220 ul of reaction system, mixed buffer (1×), heme, COX-1/COX-2, and the compound to be tested, are sequentially added, and are incubated for 5 minutes at 25° C.;
(§3) (2) Adding chromogenic substrate (TMPD) and arachidonic acid;
(§4) (3) Carefully shaking the plate for several seconds, then incubating for 15 minutes at 25° C.;
(§5) (4) Detecting absorption value at 590 nm.
(§6) Fitting data of concentration (μmol/L) and corresponding inhibition rate (%) via Microsoft EXCEL software to get a trendline, so as to obtain the half-effective inhibiting concentration (IC50) of each tested enzyme.

Data set [2] addresses T2, Cox-2 (Homo sapiens, UniProt P35354).
T2 construct: purchased Cayman, USA
T2 sequence (P35354 18-604): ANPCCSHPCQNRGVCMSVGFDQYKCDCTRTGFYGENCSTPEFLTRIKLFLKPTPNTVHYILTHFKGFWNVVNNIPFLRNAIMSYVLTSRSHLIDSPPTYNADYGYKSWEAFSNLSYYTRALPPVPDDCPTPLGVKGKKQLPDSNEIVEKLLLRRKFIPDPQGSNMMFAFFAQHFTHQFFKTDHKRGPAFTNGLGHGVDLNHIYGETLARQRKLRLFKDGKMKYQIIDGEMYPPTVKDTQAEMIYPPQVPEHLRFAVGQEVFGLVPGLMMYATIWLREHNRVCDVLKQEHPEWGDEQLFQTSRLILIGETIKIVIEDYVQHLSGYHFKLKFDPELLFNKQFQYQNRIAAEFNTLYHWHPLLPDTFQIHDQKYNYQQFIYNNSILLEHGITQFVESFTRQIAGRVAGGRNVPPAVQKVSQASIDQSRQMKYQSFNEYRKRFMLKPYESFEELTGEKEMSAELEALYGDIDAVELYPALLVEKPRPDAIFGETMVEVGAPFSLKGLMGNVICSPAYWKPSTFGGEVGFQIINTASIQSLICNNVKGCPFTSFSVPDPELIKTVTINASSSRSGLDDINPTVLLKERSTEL
Put plainly: inhibiting activity to COX-2 (TMPD colorimetric, 590 nm). It is filed as biochemical. The note with it: tested at 300, 100, 30, 10 μmol/L (positive control 100, 30, 10, 3). As for the experimental part: as §1, §2, §3, §4, §5, §6

In data set [3] the target is T3, 5-Lox (human recombinant) (Homo sapiens, UniProt P09917).
T3 construct: purchased Cayman, USA
T3 sequence (P09917 1-674): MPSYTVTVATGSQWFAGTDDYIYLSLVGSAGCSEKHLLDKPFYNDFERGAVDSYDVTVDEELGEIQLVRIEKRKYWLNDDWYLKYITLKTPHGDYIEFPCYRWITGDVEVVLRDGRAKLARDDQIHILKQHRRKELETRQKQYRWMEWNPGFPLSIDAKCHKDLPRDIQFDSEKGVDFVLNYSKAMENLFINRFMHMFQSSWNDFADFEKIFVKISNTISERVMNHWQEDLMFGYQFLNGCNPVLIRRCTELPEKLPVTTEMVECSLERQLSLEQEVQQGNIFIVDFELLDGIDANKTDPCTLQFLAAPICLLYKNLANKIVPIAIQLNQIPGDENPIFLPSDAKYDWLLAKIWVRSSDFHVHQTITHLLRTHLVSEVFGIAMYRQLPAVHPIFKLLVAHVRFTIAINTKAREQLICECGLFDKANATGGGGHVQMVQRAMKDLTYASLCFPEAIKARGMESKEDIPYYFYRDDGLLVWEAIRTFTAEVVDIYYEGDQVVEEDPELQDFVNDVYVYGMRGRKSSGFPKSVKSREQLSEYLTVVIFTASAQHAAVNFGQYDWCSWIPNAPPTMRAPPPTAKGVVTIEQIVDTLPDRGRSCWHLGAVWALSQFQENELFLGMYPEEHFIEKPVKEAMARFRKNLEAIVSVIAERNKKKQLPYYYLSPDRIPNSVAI
Put plainly: inhibiting activity to 5-lipoxygenase (500 nm). The note with it: tested at 300, 100, 30, 10 μmol/L (positive control 100, 30, 10, 3). It counts as biochemical.
From the text: as §6

The test system of data set [4] is ICR mice. Put plainly: in vivo. From the text:
(§7) Each tested group includes 5 dose-groups during the tests as follows:
Intragastric administration (ig)
(3) Observed periods: 14 days

Data set [5] has as its system ICR mice. Put plainly: in vivo.
From the text: as §7
Intraperitoneal injection (ip)
(3) Observed periods: 14 days.
This is another data set of the same source.

Data set [6] relates to SD rats. Put plainly: toxicity test in SD rats, four-week consecutive intragastric administration. The note with it: rats. As for the experimental part:
2. […] The tested samples are formulated into suspensions by milling with 0.5% CMC—Na; intragastric administration every day (10 ml/kg) for consecutive 4 weeks; on each day, after administration, the general conditions of the animals are observed, and weight and amount of ingestion are determined once every week. In 24 hours after the last administration, the rats are fasted overnight, blood samples are withdrawn via femoral arteries, and the rats are dissected, and the indexes of blood cytology and biochemics, gloss anatomy and histopathological examination are preformed.

The test system of data set [7] is SD rats. Put plainly: long-term toxicity test in SD rats, thirteen-week consecutive intragastric administration and four-week convalescence. The note with it: rats. As for the experimental part:
2. […] The tested samples are formulated into suspensions by milling with 0.5% CMC—Na; intragastric administration (10 ml/kg) every day for consecutive 13 weeks; on each day, after administration, the general conditions of the animals are observed, and weight and amount of ingestion are determined once every week. In 24 hours after the last administration, half of rats in each tested group are fasted overnight, blood samples are withdrawn via femoral arteries, and the rats are dissected, and the indexes of blood cytology and biochemics, gloss anatomy and histopathological examination are preformed. The administration to remaining half rats is stopped, and the convalescence is observed; general conditions are observed and weight and amount of ingestion are determined once every week. After 4 weeks, the observation is complete, and the half of rats in each tested group are fasted overnight, blood samples are withdrawn via femoral arteries, and the rats are dissected, and the indexes of blood cytology and biochemics, gloss anatomy and histopathological examination are preformed.

“And” between values parts separate entries of the source, which are not always exact repeats. Identical values can stand only once.

Usually IC50 stands for the concentration that gives 50% inhibition. A word on the LD50: it is the dose expected to kill half of the subjects tested. As for “R-10,11-dihydro-alpha-methyl-10-oxo-dibenzo[b,f]tiazem-2-acetic acid:S-10,11-dihydro-alpha-methyl-10-oxo-dibenzo[b,f]tiazem-2-acetic acid (6:1) [S:R = 1:6]”, the IC50 in data set [1] was 70.3 µM; in data set [2], 5.2 µM; in data set [3], 18.6 µM. For the same substance, the “Com. Vs. S (multiple)” value in data set [4] (LD50 ig compared with S) is 4.2 multiple; in data set [5] (LD50 ip compared with S), 2.5 multiple. For the same substance, the “LD50” value is 1138.5 ± 80.3 mg/kg and 1138.5 mg/kg in data set [4] (mice, ig, single dose, 14 days observation, Bliss method); 497.6 ± 28.6 mg/kg in data set [5] (mice, ip, single dose, 14 days observation, Bliss method). For the same substance, the gastrointestinal tract toxicity result in data set [6] (four-week ig, S 80, 40, RS 80, R 480, 240, 120, R:S=6:1 320, 160, 80 mg/kg) is “do not produce significant gastrointestinal tract toxicity”; in data set [7] (13-week ig, S 50, 25, RS 50, R 400, 200, 100, R:S=6:1 200, 100, 50 mg/kg), “not produce significant gastrointestinal tract toxicity”. The figures for the nontoxic dosage in data set [6] (four-week consecutive intragastric administration) and in data set [7] (13-week consecutive intragastric administration) were 160 mg/kg and 100 mg/kg, respectively.
